Source: patent US20150258082A1, “COMBINATION THERAPY WITH GLUTAMINASE INHIBITORS” (priority 2014, published 2015)
Like-named read-outs stand apart in the source and are kept apart here. Each block holds one molecule with its values, some of them ahead of it.

How the values were obtained:
P493-6 (myc "on") cells = experiment: Cell Proliferation Assay, P493-6 cells, 72 hrs; assay type: cell-based
Description: For compound assay, P493-6 cells were plated in 96-well V-bottom plates on the day of compound addition in 50 μl of growth media at a cell density of 200,000 cells/ml (10,000 cells/well). Compounds were serially diluted in 100% DMSO at 200-times the final concentration. Compounds were diluted 100-fold into growth media and then 50 μl of this mixture was added to cell plates making the final concentration of DMSO 0.5%. Cells were incubated with compound for 72 hrs at 37° C. with 5% CO2 and analyzed for antiproliferative effects either by Cell Titer Glo (Promega) or FACS analysis using the Viacount (Millipore) kit on the Guava instrument.

[1] = target: T1, recombinant form of Glutaminase 1 (GAC) (Homo sapiens, UniProt O94925); experiment: Recombinant Enzyme Assay (no preincubation); assay type: biochemical; conditions: read-out: GAC Delta N2 IC50 no preinc
T1 sequence (O94925 137-598 isoform O94925-3 limits assumed): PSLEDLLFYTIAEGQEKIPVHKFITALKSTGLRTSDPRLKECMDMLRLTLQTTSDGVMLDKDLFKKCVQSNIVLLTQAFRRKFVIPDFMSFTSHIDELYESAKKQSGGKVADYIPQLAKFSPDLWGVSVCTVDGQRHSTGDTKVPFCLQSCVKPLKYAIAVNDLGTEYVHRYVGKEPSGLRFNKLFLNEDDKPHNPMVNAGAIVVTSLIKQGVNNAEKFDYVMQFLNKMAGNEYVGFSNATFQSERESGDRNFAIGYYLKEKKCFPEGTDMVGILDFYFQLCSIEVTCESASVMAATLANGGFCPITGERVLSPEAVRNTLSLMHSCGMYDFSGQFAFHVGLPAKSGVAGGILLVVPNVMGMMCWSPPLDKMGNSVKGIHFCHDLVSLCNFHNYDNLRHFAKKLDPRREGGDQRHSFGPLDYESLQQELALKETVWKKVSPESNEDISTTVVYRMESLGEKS
Description: Compounds were assessed for their ability to inhibit the enzymatic activity of a recombinant form of Glutaminase 1 (GAC) using a biochemical assay that couples the production of glutamate (liberated by GAC) to glutamate dehydrogenase (GDH) and measuring the change in absorbance for the reduction of NAD^+ to NADH. […] Enzymatic reaction was started with the addition of 50 μL of enzyme solution (50 mM Tris-HCl pH 8.0, 0.2 mM EDTA, 150 mM K2HPO4, 0.1 mg/ml BSA, 1 mM DTT, 10 ppm antifoam, 4 units/ml GDH, 4 mM adenosine diphosphate, and 4 nM GAC) and read in a Molecular Devices M5 plate reader at 20° C. The plate reader was configured to read absorbance (λ=340 nm) in kinetic mode for 15 minutes. Data was recorded as milli-absorbance units per minute and slopes were compared to a control compound and a DMSO-only control on the same plate. Compounds with slopes less than the DMSO control were considered inhibitors and plate variability was assessed using the control compound.

[2] = system: RPMI-8226 multiple myeloma xenograft; experiment: Multiple myeloma xenograft study, compound 670 and lenalidomide; assay type: in vivo, mice; conditions: compound 670 200 mg/kg oral BID + lenalidomide 30 mg/kg oral QD, 24 days; P<0.0001 vs vehicle and lenalidomide alone, P<0.01 vs CB-839 alone
Description: Female scid/beige mice (n=40) age 7-8 weeks were implanted subcutaneously with 3×10^7 RPMI-8226 multiple myeloma cells per mouse mixed 1:1 with Matrigel. […] Tumors were measured with calipers three times per week and tumor volume calculated using the formula tumor volume (mm^3)=(a×b^2/2) where ‘b’ is the smallest diameter and ‘a’ is the largest perpendicular diameter. ****P-value<0.0001 (One-way ANOVA vs. vehicle and vs. Lenalidomide alone) **P-value<0.01 (One-way ANOVA vs. CB-839 alone).

[3] = system: MM1S cells and RPMI-8226 cells; experiment: Combination of compound 670 with pomalidomide or lenalidomide, cell survival and combination index; assay type: cell-based; conditions: 72 hours; cells resistant to pomalidomide or lenalidomide or not; combination index by Calcusyn
Description: At the end of the incubation, cell viability was measured using Cell Titer Glo as per manufacturer's protocol (Promega, Madison, Wis.). Measured values for compound-treated cells were normalized to DMSO-treated cells and data is reported as a cell survival ratio with a value of 1 (one) corresponding to maximum cell survival and a value of 0 (zero) corresponding to no cell survival. Cell survival ratios for all compound treatments are represented as bar graphs. Combination indices were calculated using the Calcusyn program (biosoft.com) and reported for individual mixtures of compound 670 and either pomalidomide or lenalidomide. Compound mixtures that produced a synergistic anti-tumor activity are highlighted.

[4] = system: RPMI-8226 multiple myeloma xenograft; experiment: Multiple myeloma xenograft study with CB-839, pomalidomide and combination; assay type: in vivo, mice; conditions: CB-839 200 mg/kg oral BID + pomalidomide 1 mg/kg oral QD; P<0.01
Description: Female scid/beige mice (age 7-9 weeks) were implanted subcutaneously with 1×10^7 RPMI-8226 myeloma cells mixed 1:1 with matrigel. Tumors were measured with calipers three times per week and tumor volume calculated using the formula tumor volume (mm^3)=(a×b^2/2) where ‘b’ is the smallest diameter and ‘a’ is the largest perpendicular diameter.

[5] = target: T1, recombinant form of Glutaminase 1 (GAC); experiment: Recombinant Enzyme Assay - Time Dependence (60 min preincubation); assay type: biochemical
Description: The enzyme/compound mix was sealed with sealing foil (USA Scientific) and allowed to incubate, with mild agitation, for 60 minutes at 20° C. Enzymatic reaction was started with the addition of 50 μL of substrate solution (50 mM Tris-HCl pH 8.0, 0.2 mM EDTA, 150 mM K2HPO4, 0.1 mg/ml BSA, 1 mM DTT, 20 mM L-glutamine, 2 mM NAD^+, and 10 ppm antifoam) and read in a Molecular Devices M5 plate reader at 20° C. The plate reader was configured to read absorbance (λ=340 nm) in kinetic mode for 15 minutes. Data was recorded as milli-absorbance units per minute and slopes were compared to a control compound and a DMSO-only control on the same plate. Compounds with slopes less than the DMSO control were considered inhibitors and plate variability was assessed using the control compound.

RPMI-8226 cells = experiment: Anti-proliferative activity in multiple myeloma cell line RPMI-8226 (Cell Titer Glo, 72 hrs); assay type: cell-based
Description: Multiple myeloma cell lines RPMI-8226 and MM1S were seeded in 96-well plates at a density of 10,000 cells/well. […] Cells were incubated for 72 hrs at 37° C. with 5% CO2 and analyzed for antiproliferative effects by Cell Titer Glo (Promega). Cell proliferation (% of DMSO control) was determined by comparing the Cell Titer Glo signal (rfu) of compound 670-, lenalidomide-, or pomalidomide-treated cells versus DMSO treated cells. Cell viability (% DMSO of control) was plotted against compound concentration and resulting curves were fit using a four-parameter dose response to determine IC50 values.

[6] = P493-6, 72 h, read-out: Cell prolif P493 72h IC50, P493 cells, 72h

SMILES: O=C(Nc1nnc(CCSCCc2nnc(NC(=O)C(c3ccccc3)N3CCNCC3)s2)s1)C(c1ccccc1)N1CCNCC1 (centres unmarked) [compound 79]
IC50 (P493-6 (myc "on") cells; [6]): 20000 nM

IC50 [1]: 7000 nM
SMILES: O=C(COC(C(=O)Nc1nnc(CCCCc2nnc(NC(=O)C(COC(=O)C3CCNCC3)c3ccccc3)s2)s1)c1ccccc1)C1CCNCC1 (centres unmarked) [compound 302]
IC50 (P493-6 (myc "on") cells; [6]): 870 nM

SMILES: CCOc1ccc(C(O)C(=O)Nc2nnc(CCCCc3ccc(NC(=O)Cc4ccccc4)nn3)s2)cc1 (centres unmarked) [compound 558]
IC50 (P493-6 (myc "on") cells; [6]): 28 nM

SMILES: O=C(OCCCN1CCOCC1)OCN(C(=O)Cc1ccccc1)c1nnc(CCSCCc2nnc(N(COC(=O)OCCCN3CCOCC3)C(=O)Cc3ccccc3)s2)s1 [compound 28]
IC50 (P493-6 (myc "on") cells; [6]): 1000 nM

SMILES: O=C(Cc1ccc(Cl)c(CC(F)(F)F)c1)Nc1ccc(CCCCc2nnc(NC(=O)Cc3ccccn3)s2)nn1 [compound 721]
IC50 (P493-6 (myc "on") cells; P493-6, 72 h, read-out: Cell prolif P493 72h IC50, P493-6 cells, 72 h): 22 nM

IC50 [1]: > 20000 nM
SMILES: O=C(Nc1nnc(CCCCc2nnc(NC(=O)[C@@H]3CC3c3ccccc3)s2)s1)C1C[C@H]1c1ccccc1 (some centres unmarked) [compound 90]

SMILES: O=C(Cc1cccc(OC(F)(F)F)c1)Nc1ccc(CCCCc2nnc(NC(=O)Cc3ccccn3)s2)nn1 [compound 670]
reduction in tumor size, combination with lenalidomide vs either agent alone [2]: greater reduction in tumor size
combination effect with lenalidomide in multiple myeloma cells [3]: synergizes
combination effect with pomalidomide in multiple myeloma cells [3]: synergizes
reduction in tumor size, combination with pomalidomide vs either agent alone [4]: greater reduction in tumor size
IC50 (P493-6 (myc "on") cells; read-out: Cell prolif P493 72h IC50, P493 cells, 72h): 30 nM

IC50 [5]: 4 nM
SMILES: COC(=O)NCC1=CC(CC(=O)Nc2ccc(CCCCc3nnc(NC(=O)Cc4cccc(CNC(=O)OC)c4)s3)nn2)=CCC1 [compound 573]
IC50 (P493-6 (myc "on") cells; [6]): 15 nM

SMILES: O=C(COC(C(=O)Nc1nnc(CCCCc2nnc(NC(=O)C(COC(=O)C3CCN(C(=O)OCc4ccccc4)CC3)c3ccccc3)s2)s1)c1ccccc1)C1CCN(C(=O)OCc2ccccc2)CC1 (centres unmarked) [compound 301]
IC50 (P493-6 (myc "on") cells; [6]): 230 nM

SMILES: C=C(C(=O)Nc1nnc(CCCCc2nnc(NC(=O)C(COC(=O)CCN3CCOCC3)c3ccccc3)s2)s1)c1ccccc1 (centres unmarked) [compound 281]
IC50 (P493-6 (myc "on") cells; [6]): 660 nM

SMILES: Nc1cccc2c1C(=O)N(C1CCC(=O)NC1=O)C2=O (centres unmarked) [pomalidomide]
sensitivity of RPMI-8226 myeloma cells to the agent (RPMI-8226 cells): resistant

SMILES: Nc1cccc2c1CN(C1CCC(=O)NC1=O)C2=O (centres unmarked) [lenalidomide]
sensitivity of RPMI-8226 myeloma cells to the agent (RPMI-8226 cells): resistant

IC50 [1]: 1000 nM
SMILES: O=C(Cc1cccc(F)c1)Nc1nnc(CCCCc2nnc(NC(=O)C[C@@H](O)C(=O)O)s2)s1 [compound 153]
IC50 (P493-6 (myc "on") cells; [6]): > 50000 nM
